What is called IC50 is the concentration that inhibits the measured activity by half.

Each structure is given as a SMILES string.

Experiment [1] has as its system TGFβ1-induced expression of α-SMA protein in human intestinal fibroblasts (InMyoFib). Briefly: α-SMA ELISA in TGFβ1-activated human intestinal myofibroblasts. The experiment is classed as cell-based. The following applies: TGFβ1 3 ng/ml, 48 h. On the procedure:
Cpd.5 was added to serum-deprived intestinal fibroblasts (InMyoFib) 1 hour before the activation with TGFβ1 (3 ng/ml). After 48 hours of incubation, the expression of α-SMA was measured by ELISA. The obtained values were transformed into percentage inhibition over TGFβ1 control. Data are presented as mean (triplicates)±standard deviation (SD). Statistical analyses were performed by one-way ANOVA followed by Bonferroni post-hoc tests, using Sigma Plot 11.0 software. [*: p<0.05; **: p<0.01; ***: p<0.001 (comparison versus TGFβ1 3 ng/mL group)].
The Human Intestinal Myofibroblast (InMyoFib) (Lonza) were cultured in Smooth Muscle Cell Basal Medium (SmBM-2 TM) (Lonza cat #CC-3181) that was supplemented with SmGMTM-2 BulletKit TM (Lonza cat #CC-4149). The complete medium contains 5% fetal bovine serum. For the activation experiments with TGFβ1, the inMyoFib were plated at a density of 10×10^3 cells per well in 96-well plates. The next day, cell-culture medium was removed, and cells were washed with PBS (Invitrogen cat #14190). InMyoFib were deprived for 24 hours in serum-free, insulin-free and rhFGF-B-free medium. […]
The level of α-SMA was measured using a Sandwich ELISA. […]
(In general: In an ELISA, binding on a coated surface is turned into a signal by an enzyme label.)

For experiment [2], the system named is TGFβ1-induced expression of COL1A1 protein in human HSC. The experiment is described as follows: Col1α1 ELISA on supernatants of TGFβ1-activated human HSC. The class given is cell-based. Particulars: 48 h. On the procedure: The human primary hepatic stellate cells (hHSC) (Innoprot) were cultured in STeCM medium (ScienCell cat #5301) that was supplemented with 2% fetal bovine serum (FBS, ScienCell cat #0010), 1% penicillin/streptomycin (ScienCell cat #0503) and stellate cell growth supplement (SteCGS; ScienCell cat #5352). Cell culture flasks were coated with Poly-L Lysine (Sigma cat #P4707) for a better adherence.
The human primary hepatic stellate cells (hHSC) (Innoprot) were cultured under standard conditions, as described above. The cells were subsequently plated at a density of 2×10^4cells/well or 6,5×10^3 cells/well into 96-well or 384-well plates respectively. The next day, cell-culture medium was removed, and cells were washed with PBS (Invitrogen cat #14190). Then, hHSC were deprived for 24 hours in serum-free and SteCGS-free medium. For the treatments with compounds of formula (I), the serum-deprived hHSC were preincubated for 1 hour with the compounds followed by addition of the profibrogenic stimuli TGFβ1 (PeproTech cat #100-21, 1 ng/mL) in serum-free and SteCGS-free medium for an additional 48 hour period. At the end of treatment, the cell culture supernatants of treated-HSC were transferred into a new plate before storage at −20° C.The cells were washed with PBS (Invitrogen, cat #14190) before the addition of lysis buffer (CelLytic™ MT reagent; Sigma #C3228). Plates were then incubated for 30 min on ice using a plate shaker, before storage at −20° C.
The level of the human pro-Collagen α1 (col1α1) was measured using a Sandwich ELISA (R&D systems,). Briefly, the wells of an ELISA plate were first coated with the capture antibody at room temperature overnight. After 3 washes in PBS +0.05% Tween 20, a blocking solution consisting of PBS +1% BSA was added for one hour followed by another washing cycle. […]
Serum-deprived HSC were preincubated for 1 hour with RM-5061 before the activation with the profibrogenic cytokine TGFβ1 (1 ng/ml). After 48 hours of incubation, the cellular α-SMA content as well as secreted COL1A1 were measured by ELISA. […]

With `[2H]C([2H])([2H])C(=O)Oc1ccccc1C(=O)Nc1ncc([N+](=O)[O-])s1` [Cpd.5, 2-[(5-nitro-1,3-thiazol-2-yl)carbamoyl]phenyl (d3)ethanoate], the “effect on TGFβ1-induced α-SMA in human intestinal fibroblasts” value in experiment [1] was “inhibits”.

Take `CC(C)(C)[C@H](N)C(=O)Oc1ccccc1C(=O)Nc1ncc([N+](=O)[O-])s1` [RM-5061, (S)-2-(5-nitrothiazol-2-ylcarbamoyl)phenyl 2-amino-3,3-dimethylbutanoate]: the “effect on COL1A1 in human HSC” value in experiment [2] (TGFβ1 1 ng/ml) is on record as “reduced in a comparable manner”. In addition, in experiment [2] (secreted COL1A1, TGFβ1 1 ng/ml), 2670 nM corresponded to half-maximal inhibition (IC50) and the “Max % I Over TGFβ, COL1A1” value was found to be 43%.

Source of the values: US20170290814A1, “METHODS OF TREATMENT OF CHOLESTASIS AND FIBROSIS” (GENFIT, priority 2016, published 2017).
